Reference: patent publication US20140039008A1, “METHODS FOR THE ADMINISTRATION OF ILOPERIDONE” (VANDA PHARMACEUTICALS, INC., priority 2004, published 2014)
“And” between values parts separate entries of the source, which are not always exact repeats. Equal values may be shown once. Marks after values point to notes of the source that are not given here.

Experiments:
[1] = in vivo
[2] = in vivo; remark: listed apart in the source
patients [3] = assay: Example 2: QTcF change from baseline in iloperidone-treated patients; format: in vivo, human
Description: From the 300 iloperidone-treated patients initially genotyped for the CYP2D6*4 and * 10 variants (VP-VYV-683-3101), 222 remaining DNA samples were used for this extended pharmacogenomic analysis. One patient was excluded from the analysis due to inconsistent results for the CYP2D6 allele *4 generated by Quest Diagnostics Central Laboratory (Collegeville, Pa.) and Cogenics (Morrisville, N.C.). Pharmacokinetic data of the (iloperidone+P88)/P95 ratio was available for 168 of these patients. QT measurement at Day 14 and 28 was available for 169 and 146 patients respectively.
Analyses were performed on observed case data using an ANCOVA model with the baseline value as a covariate for the change from baseline in QTc (Fridericia formula) and using an ANOVA model for iloperidone blood exposure at Day 14 and Day 28. Linkage disequilibrium analysis was performed using Haploview v4.0 (Barrett et al, 2005).

patients [4] = assay: placebo-controlled Phase III studies of iloperidone, QTcF change; format: in vivo, human; conditions: for mean change in the QTcF: most recent study
Procedure: Iloperidone is a benzisoxazole-piperidinyl derivative, currently in development for the treatment of CNS disorders. […] At lower doses of iloperidone (4 mg-16 mg) QTcF prolongation was minimal (0.1-5 msec). In the most recent study, a greater prolongation was observed when higher doses of iloperidone (20-24 mg/day) were studied. The mean change in the QTcF at doses 20-24 mg/day was 8.5 msec, and 4.6 msec in the 12-16 mg/day dose range in this study.

patients [5] = assay: Example 1: QTc change from baseline after iloperidone by CYP2D6 genotype or metabolite ratio; format: in vivo, human; conditions: for QTc change at Period 2: after CYP2D6 inhibitor
Description: The research leading to the present invention was designed to examine the effect of different doses of iloperidone relative to the effect of ziprasidone and quetiapine on QTc duration under carefully controlled conditions. To further evaluate the possible relationship between exposure to iloperidone and the comparators to QTc duration, reassessment after pharmacological inhibition of the principle metabolic pathways for each drug, under steady-state conditions, was also planned.
The addition of metabolic inhibitors in this study therefore allowed for an evaluation of the effect of increasing blood-concentration of iloperidone and/or its metabolites on QT duration. More specifically, this study allowed for an evaluation of the effect of iloperidone on QTc before and after the addition of the CYP2D6 inhibitor, paroxetine, as well as before and after the addition of the CYP3A4 inhibitor, ketoconazole.
The 128 individuals that participated were a good representation of the total sample of 165 individuals that participated in the trial. 22 of 29 total were from the iloperidone 8 mg bid group, 30 of 34 were from the iloperidone 12 mg bid group, 22 of 31 from the 24 mg qd group, 3 of 5 of the risperidone group, 28 of 33 of the ziprazidone group, and 23 of 33 of the quetiapine group.
In order to understand whether the difference in concentration of P88 at Period 1 Tmax was relevant to the increases in QTc after the addition of the inhibitors, the observed mean of P88 for the CYP2D6G1846A AG group was used to divide all individuals into two classes. The first includes individuals with P88 concentrations at Period 3, after the addition of both inhibitors, of equal to or less than 34 ng/mL and the second class includes individuals with P88 concentration greater than 34 ng/mL. The two classes were then compared in regards to the QTc change from baseline at Period 3. Using an ANOVA statistic for the first class […] (n=55) the QTc mean change from baseline in Period 3 was 22.7 msec and that for P88≦34 (n=12) the mean QTc for the same period was 7.7 msec.
While the results for some groups are not statistically significant, they do indicate a trend supporting the hypothesis that QTc prolongation is correlated to P88/P95 ratio. Similar results were obtained when cutoff ratios of 3.0 and 4.0 were analyzed, providing further support to the hypothesis that the extent of QTc prolongation a patient may experience after treatment can be predicted by measuring P88 and P95 blood levels.
Similar results were observed when considering QTc correlation to the (iloperidone+P88)/P95 ratio. […] While the results for some groups are not statistically significant, they do indicate a trend supporting the hypothesis that QTc prolongation is correlated to (iloperidone+P88)/P95 ratio. Indeed, when cutoff ratios of 3 and higher were analyzed, similar results were obtained providing further support to the hypothesis that the extent of QTc prolongation a patient may experience after treatment can be predicted by measuring iloperidone, P88 and P95 blood levels.

With `COc1cc(C(C)=O)ccc1OCCCN1CCC(c2noc3cc(F)ccc23)CC1` [iloperidone, 1-[4-[3-[4-(6-fluoro-1,2-benzisoxazol-3-yl)-1-piperidinyl]propoxy]-3-methoxyphenyl]ethanone] the “increase in the concentrations” value [1] was 38-58%, the “increase of the area under the curve (AUC)” value [2] was 131% and the “QTcF change, LS Squares Mean QTcF change from baseline” value (from here on “QTcF change”) (patients [3]; Day 14, 1 or 2 non-functional CYP2D6 alleles) was 16.3 msec and 16.3 (N = 59) msec. The “QTcF change” value (patients [3]; Day 14, 2 functional CYP2D6 alleles) was 9.7 msec and 9.7 (N = 110) msec, the “QTcF change” value (patients [3]; Day 14, (iloperidone+P88)/P95 ratio >1) was 16.0 msec and 16.0 (N = 99) msec and the “QTcF change” value (patients [3]; Day 14, (iloperidone+P88)/P95 ratio ≦1) was 7.9 msec and 7.9 (N = 127) msec. For the same molecule, the “QTcF change” value (patients [3]; Day 28, 1 or 2 non-functional CYP2D6 alleles) was 11.4 msec and 11.4 (N = 56) msec, the “QTcF change” value (patients [3]; Day 28, 2 functional CYP2D6 alleles) was 4.4 msec and 4.4 (N = 90) msec and the “QTcF change” value (patients [3]; Day 28, (iloperidone+P88)/P95 ratio >1) was 10.1 msec and 10.1 (N = 79) msec. For the same molecule, the “QTcF change” value (patients [3]; Day 28, (iloperidone+P88)/P95 ratio ≦1) was 4.8 msec and 4.8 (N = 119) msec, the “mean change in the QTcF” value (patients [4]; 12-16 mg/day dose range) was 4.6 ms and the “mean change in the QTcF” value (patients [4]; 20-24 mg/day) was 8.5 ms. The QTcF prolongation (patients [4]; lower doses 4 mg-16 mg) was 0.1 to 5 ms, the “LSMean QTc change from Baseline 8 mg bid” value (patients [5]; (ILO + P88)/P95 ratio <3) was 7.2 (n = 23) and the “LSMean QTc change from Baseline 12 mg bid” value (patients [5]; (ILO + P88)/P95 ratio <3) was 8.7 (n = 31). For the same molecule, the “LSMean QTc change from Baseline 8 + 12 mg bid” value (patients [5]; (ILO + P88)/P95 ratio <3) was 8.3 (n = 54), the “LSMean QTc change from Baseline 24 qd” value (patients [5]; (ILO + P88)/P95 ratio <3) was 14.4 (n = 24) and the “LSMean QTc change from Baseline All Treatment Groups” value (patients [5]; (ILO + P88)/P95 ratio <3) was 10.424 (n = 78). The “LSMean QTc change from Baseline 8 mg bid” value (patients [5]; (ILO + P88)/P95 ratio >3) was 21.3 (n = 5), the “LSMean QTc change from Baseline 12 mg bid” value (patients [5]; (ILO + P88)/P95 ratio >3) was 15.2 (n = 3) and the “LSMean QTc change from Baseline 8 + 12 mg bid” value (patients [5]; (ILO + P88)/P95 ratio >3) was 17.3 (n = 8). For the same molecule, the “LSMean QTc change from Baseline 24 qd” value (patients [5]; (ILO + P88)/P95 ratio >3) was 30.5 (n = 5), the “LSMean QTc change from Baseline All Treatment Groups” value (patients [5]; (ILO + P88)/P95 ratio >3) was 20.031 (n = 13) and the “QTc change at Period 1” value (patients [5]; CYP2D6C100T CC, 8 mg bid) was 7.8 (17). For the same molecule, the “QTc change at Period 2” value (patients [5]; CYP2D6C100T CC, 8 mg bid) was 11.7 (16), the “QTc change at Period 1” value (patients [5]; CYP2D6C100T CC, 12 mg bid) was 11.8 (23) and the “QTc change at Period 2” value (patients [5]; CYP2D6C100T CC, 12 mg bid) was 14.5 (21). The “QTc change at Period 1” value (patients [5]; CYP2D6C100T CC, 24 mg qd) was 9.5 (14), the “QTc change at Period 2” value (patients [5]; CYP2D6C100T CC, 24 mg qd) was 16.4 (15) and the “QTc change at Period 1” value (patients [5]; CYP2D6C100T CT, 8 mg bid) was 2.9 (2). For the same molecule, the “QTc change at Period 2” value (patients [5]; CYP2D6C100T CT, 8 mg bid) was 12.5 (2), the “QTc change at Period 1” value (patients [5]; CYP2D6C100T CT, 12 mg bid) was 5.8 (6) and the “QTc change at Period 2” value (patients [5]; CYP2D6C100T CT, 12 mg bid) was 8.7 (6). For the same molecule, the “QTc change at Period 1” value (patients [5]; CYP2D6C100T CT, 24 mg qd) was 19.0 (5), the “QTc change at Period 2” value (patients [5]; CYP2D6C100T CT, 24 mg qd) was 20.6 (5) and the “QTc change at Period 1” value (patients [5]; CYP2D6C100T TT, 8 mg bid) was −8.4 (1). For the same molecule, the “QTc change at Period 2” value (patients [5]; CYP2D6C100T TT, 8 mg bid) was −0.7 (1), the “QTc change at Period 1” value (patients [5]; CYP2D6C100T TT, 12 mg bid) was 17.7 (1) and the “QTc change at Period 2” value (patients [5]; CYP2D6C100T TT, 12 mg bid) was 25.0 (1). For the same molecule, the “QTc change at Period 1” value (patients [5]; CYP2D6C100T TT, 24 mg qd) was 38.4 (1), the “QTc change at Period 2” value (patients [5]; CYP2D6C100T TT, 24 mg qd) was 28.4 (1) and the “QTc change at Period 1” value (patients [5]; CYP2D6G1846A AA, 12 mg bid) was 17.7 (1)^a. For the same molecule, the “QTc change at Period 2” value (patients [5]; CYP2D6G1846A AA, 12 mg bid) was 25.0 (1), the “QTc change at Period 1” value (patients [5]; CYP2D6G1846A AA, 24 mg qd) was 38.4 (1) and the “QTc change at Period 2” value (patients [5]; CYP2D6G1846A AA, 24 mg qd) was 28.4 (1). The “QTc change at Period 1” value (patients [5]; CYP2D6G1846A AG, 8 mg bid) was −0.8 (3), the “QTc change at Period 2” value (patients [5]; CYP2D6G1846A AG, 8 mg bid) was 8.1 (3) and the “QTc change at Period 1” value (patients [5]; CYP2D6G1846A AG, 12 mg bid) was 5.8 (6). For the same molecule, the “QTc change at Period 2” value (patients [5]; CYP2D6G1846A AG, 12 mg bid) was 8.7 (6), the “QTc change at Period 1” value (patients [5]; CYP2D6G1846A AG, 24 mg qd) was 19.0 (5) and the “QTc change at Period 2” value (patients [5]; CYP2D6G1846A AG, 24 mg qd) was 20.6 (5). The “QTc change at Period 1” value (patients [5]; CYP2D6G1846A GG, 8 mg bid) was 7.8 (17), the “QTc change at Period 2” value (patients [5]; CYP2D6G1846A GG, 8 mg bid) was 11.7 (18) and the “QTc change at Period 1” value (patients [5]; CYP2D6G1846A GG, 12 mg bid) was 11.8 (23). The “QTc change at Period 2” value (patients [5]; CYP2D6G1846A GG, 12 mg bid) was 14.5 (21), the “QTc change at Period 1” value (patients [5]; CYP2D6G1846A GG, 24 mg qd) was 14.0 (14) and the “QTc change at Period 2” value (patients [5]; CYP2D6G1846A GG, 24 mg qd) was 16.4 (15). The “LSMean QTc change from Baseline 8 mg bid” value (patients [5]; P88/P95 ratio <2) was 7.2 (n = 23), the “LSMean QTc change from Baseline 12 mg bid” value (patients [5]; P88/P95 ratio <2) was 8.7 (n = 31) and the “LSMean QTc change from Baseline 8 + 12 mg bid” value (patients [5]; P88/P95 ratio <2) was 8.3 (n = 54). For the same molecule, the “LSMean QTc change from Baseline 24 qd” value (patients [5]; P88/P95 ratio <2) was 13.9 (n = 24), the “LSMean QTc change from Baseline All Treatment Groups” value (patients [5]; P88/P95 ratio <2) was 10.244 (n = 78) and the “LSMean QTc change from Baseline 8 mg bid” value (patients [5]; P88/P95 ratio >2) was 21.3 (n = 5). The “LSMean QTc change from Baseline 12 mg bid” value (patients [5]; P88/P95 ratio >2) was 17.4 (n = 3), the “LSMean QTc change from Baseline 8 + 12 mg bid” value (patients [5]; P88/P95 ratio >2) was 18.3 (n = 8) and the “LSMean QTc change from Baseline 24 qd” value (patients [5]; P88/P95 ratio >2) was 29.4 (n = 5). The “LSMean QTc change from Baseline All Treatment Groups” value (patients [5]; P88/P95 ratio >2) was 21.111 (n = 13), the “QTc mean change from baseline in Period 3” value (patients [5]; individuals with P88>34 ng/mL at Period 3, after addition of both inhibitors) was 22.7 ms and the “QTc mean change from baseline in Period 3” value (patients [5]; individuals with P88≦34 ng/mL at Period 3, after addition of both inhibitors) was 7.7 ms.
